Source: patent US8598342B2, “Methods and compounds for antimicrobial intervention” (President and Fellows of Harvard College, priority 2008, dated 2013)
“Also recorded” adds a separate entry of the source.

Assays:
Assay type in all cases: cell-based, Staphylococcus aureus
S. aureus [1] = assay: SAR of targocil analogs: MIC and mutation frequency
Text: Based on the discovery of targocil as an inhibitor of WTA biosynthesis, further studies of the antibiotic were undertaken to elucidate the basis of its activity and to discover other antibiotics based on the structure of targocil. The goal for the initial SAR of targocil was to alter only the A ring to determine modifications that would improved potency as measured by MIC. We developed synthetic chemistry schemes to modify the targocil scaffold and, initially, nineteen different derivatives of targocil were made. […] Modifications to the D ring appear particularly promising. Finally, the optimized compounds from this second round of SAR could then be used to discover modifications to the amine group that could be tolerated.

[2] = test system: WTA biosynthesis in S. aureus RN4220; assay: PAGE analysis of WTAs isolated from S. aureus RN4220 grown with tunicamycin; details: increasing but sub-lethal concentrations of tunicamycin
S. aureus [3] = assay: Two dimensional drug interaction analysis between tunicamycin and targocil; details: normally inhibitory concentrations of targocil; 18 h at 30° C.
Method: (A) Targocil MIC data for a panel of Gram-positive strains, including MRSA clinical isolates B5271 and 5340A. Growth was monitored in triplicate after 12 h at 28° C. using optical density. (B) Two dimensional drug interaction analysis between tunicamycin and targocil grown for 18 h at 30° C. […] At higher concentrations, tunicamycin is toxic because it inhibits cell wall biosynthesis. […] Varying concentrations of drug were added to […] of S. aureus RN4220 after 5 h and cell count was monitored over time at 30° C. […] Cells were grown at 28° C. for 12 h and monitored for growth using optical density (OD600). Data were normalized to the DMSO controls for each strain. (E) Two classes of mutants were examined: phage resistant (m1 3) and phage sensitive (m4-5).
Having discovered targocil, the next challenge was to identify its target in S. aureus. We first used the natural product tunicamycin to verify that targocil requires the presence of a functional WTA pathway. Although toxic at high concentrations, tunicamycin is a selective TarO inhibitor that abolishes WTA expression at sublethal concentrations. (Hancock I C, Wiseman G, & Baddiley J (1976) Febs Letters 69:75-80) We predicted that tunicamycin should antagonize targocil by preventing flux into the WTA biosynthetic pathway. […]

S. aureus RN4220 = assay: Phage infection (PFUs) of S. aureus grown with tunicamycin; details: increasing tunicamycin

Row | Compound | mutation frequency, relative to targocil (S. aureus [1]; in vitro) | potency as measured by MIC, relative to targocil (S. aureus [1]; two methoxy groups at R1 and R2 of ring A) | WTA biosynthesis (PAGE of isolated WTAs) [2] | antagonism of targocil by tunicamycin (S. aureus [3]) | phage infection (PFUs) (S. aureus RN4220)
1 | CCN(CC)c1nc2c(S(=O)(=O)c3ccccc3)nnn2c2cc(OC)c(OC)cc12 [Compound 4-22-7, N,N-Diethyl-7,8-dimethoxy-3-(phenylsulfonyl)-[1,2,3]triazolo[1,5-a]quinazolin-5-amine] | better | more potent | – | – | –
2 | tunicamycin | – | – | dose-dependent decrease | complete protection; also recorded: antagonizes the lethal effect of targocil | dose-dependent decrease
